Data taken from ChEMBL document CHEMBL1201862, “PubChem BioAssay data set” (2004).
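Dose response: 5 concentrations. Exposure: 48 h. Format: 96-well plates. Endpoint: linear interpolation; highest concentration if not reached. Here, GI50 denotes the concentration required for 50% inhibition of growth.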 The source made the active and inactive calls. No stated cut-off is given here; in the data, active = GI50 up to about 1.1 µM and inactive = higher.

Legend:
Experiment in all cases: DTP human tumour cell line panel, 48 h
A498 = test system: A498
A549 = test system: A549
ACHN = test system: ACHN
COLO 205 = test system: COLO 205
HOP-62 = test system: HOP-62
M14 = test system: M14
MCF7 = test system: MCF7
MOLT-4 = test system: MOLT-4
NCI-H226 = test system: NCI-H226
OVCAR-3 = test system: OVCAR-3
SF-268 = test system: SF-268
SF-295 = test system: SF-295
SF-539 = test system: SF-539
SK-MEL-5 = test system: SK-MEL-5
SK-OV-3 = test system: SK-OV-3
SN12C = test system: SN12C
HCT-116 = test system: HCT-116
IGROV-1 = test system: IGROV-1
PC-3 = test system: PC-3

SMILES | GI50 (A498) | GI50 (A549) | GI50 (ACHN) | GI50 (COLO 205) | GI50 (HOP-62) | GI50 (M14) | GI50 (MCF7) | GI50 (MOLT-4) | GI50 (NCI-H226) | GI50 (OVCAR-3) | GI50 (SF-268) | GI50 (SF-295) | GI50 (SF-539) | GI50 (SK-MEL-5) | GI50 (SK-OV-3) | GI50 (SN12C) | GI50 (HCT-116) | GI50 (IGROV-1) | GI50 (PC-3)
O=c1[nH]/c(=C/c2ccc(OCc3ccccc3)cn2)c(=O)[nH]/c1=C/c1ccc(Cl)cc1 | 0.7 µM (active) | > 84.9 µM (inactive) | 4.24 µM (inactive) | 11.9 µM (inactive) | 1.33 µM (inactive) | 1.87 µM (inactive) | 0.546 µM (active) | 1.52 µM (inactive) | 35.1 µM (inactive) | 0.653 µM (active) | 1.87 µM (inactive) | 0.692 µM (active) | 3.08 µM (inactive) | 1.01 µM (active) | 4.47 µM (inactive) | 48.3 µM (inactive) |  |  | 
Cc1ccc([N+](=O)[O-])cc1NC(=O)C(=O)C1CCC2=C(Sc3ccccc3N2)C1=O (centres undefined) |  | > 100 µM (inactive) | > 100 µM (inactive) | > 100 µM (inactive) | > 100 µM (inactive) | > 100 µM (inactive) | > 100 µM (inactive) | 43.7 µM (inactive) | 58.7 µM (inactive) | 23 µM (inactive) | > 100 µM (inactive) | > 100 µM (inactive) | 37.5 µM (inactive) | > 100 µM (inactive) | > 100 µM (inactive) | > 100 µM (inactive) | 68.2 µM (inactive) | > 100 µM (inactive) | 53 µM (inactive)
COC[C@H](Cc1ccccc1)/N=C/c1ccccc1 |  | > 100 µM (inactive) | > 100 µM (inactive) | > 100 µM (inactive) | > 100 µM (inactive) | > 100 µM (inactive) | > 100 µM (inactive) | > 100 µM (inactive) |  |  | > 100 µM (inactive) | > 100 µM (inactive) |  | > 100 µM (inactive) | > 100 µM (inactive) | > 100 µM (inactive) | > 100 µM (inactive) | > 100 µM (inactive) | > 100 µM (inactive)
CCN1CCN=C2c3cc(OC)ccc3Nc3c([N+](=O)[O-])ccc1c32 |  | 0.667 µM (active) |  | 0.668 µM (active) | 0.634 µM (active) | 1 µM (active) | 1.28 µM (inactive) | 0.279 µM (active) |  |  | 0.443 µM (active) | 1.61 µM (inactive) |  | 1.17 µM (inactive) | 2.43 µM (inactive) | 0.796 µM (active) |  | 1.67 µM (inactive) | 1 µM (active)
Cc1cc(-c2nc3ccccc3s2)ccc1NS(=O)(=O)O | 65.9 µM (inactive) | > 5.82 µM (inactive) | > 7.78 µM (inactive) | > 4.65 µM (inactive) |  | > 29.5 µM (inactive) | < 0.0382 µM (active) | 4.73 µM (inactive) | > 39.9 µM (inactive) |  | > 9.64 µM (inactive) | > 43.1 µM (inactive) | 0.0508 µM (active) | > 100 µM (inactive) | > 33.5 µM (inactive) | > 5.92 µM (inactive) | > 4.65 µM (inactive) | 1.11 µM (active) | 
COP1(=O)OCc2cnccc2O1 (centres undefined) |  | > 100 µM (inactive) | > 100 µM (inactive) | > 100 µM (inactive) | > 100 µM (inactive) | > 100 µM (inactive) | > 100 µM (inactive) | > 100 µM (inactive) | > 100 µM (inactive) | > 100 µM (inactive) | > 100 µM (inactive) | > 100 µM (inactive) | > 100 µM (inactive) | > 100 µM (inactive) | > 100 µM (inactive) | > 100 µM (inactive) | > 100 µM (inactive) | > 100 µM (inactive) | > 100 µM (inactive)
Oc1nc2nc3ccccc3nc2nc1O |  | > 100 µM (inactive) | > 100 µM (inactive) | > 100 µM (inactive) | > 100 µM (inactive) | > 100 µM (inactive) | > 100 µM (inactive) | > 100 µM (inactive) | > 100 µM (inactive) | > 100 µM (inactive) | > 100 µM (inactive) | > 100 µM (inactive) | > 100 µM (inactive) | > 100 µM (inactive) | > 100 µM (inactive) | > 100 µM (inactive) | > 100 µM (inactive) | > 100 µM (inactive) | > 100 µM (inactive)
N#Cc1sc2c(c1OC(=O)c1ccccc1)c(=O)n(-c1ccccc1)c(=S)n2-c1ccccc1 |  | 29.3 µM (inactive) |  | 16.6 µM (inactive) | 18.2 µM (inactive) | 18.3 µM (inactive) | 19.2 µM (inactive) | 20.6 µM (inactive) | 18.1 µM (inactive) | 28.1 µM (inactive) | 33.5 µM (inactive) | 28.2 µM (inactive) | 23.8 µM (inactive) | 15.2 µM (inactive) | 35.6 µM (inactive) | 26.4 µM (inactive) | 19.9 µM (inactive) | 22 µM (inactive) | 19.5 µM (inactive)
CCn1c(=O)c2nc(SC)sc2n(-c2ccc(C)cc2)c1=O |  | > 100 µM (inactive) | > 100 µM (inactive) | > 100 µM (inactive) | > 100 µM (inactive) | 6.68 µM (inactive) | > 100 µM (inactive) | > 100 µM (inactive) | > 100 µM (inactive) | > 100 µM (inactive) | > 100 µM (inactive) | > 100 µM (inactive) | > 100 µM (inactive) | > 100 µM (inactive) | > 100 µM (inactive) | > 100 µM (inactive) | > 100 µM (inactive) | > 100 µM (inactive) | > 100 µM (inactive)
Cc1ccc2nc3c(C(=O)NCCN(C)C)cccc3nc2c1 | 2.47 µM (inactive) | 4.61 µM (inactive) | 1.91 µM (inactive) | 2.59 µM (inactive) | 3.85 µM (inactive) | 5.12 µM (inactive) |  | 1.64 µM (inactive) | 2.59 µM (inactive) | 5.38 µM (inactive) |  | 5.22 µM (inactive) | 4.2 µM (inactive) | 4.6 µM (inactive) | 14.8 µM (inactive) | 3.42 µM (inactive) | 1.59 µM (inactive) | 7.03 µM (inactive) | 
CC1(C)CCC(=O)c2c(O)ccc(O)c21 |  | > 100 µM (inactive) |  | > 100 µM (inactive) |  |  |  | 41.7 µM (inactive) | > 100 µM (inactive) | > 100 µM (inactive) | > 100 µM (inactive) | > 100 µM (inactive) | 77.4 µM (inactive) | > 100 µM (inactive) | > 100 µM (inactive) | > 100 µM (inactive) | 51.9 µM (inactive) | > 100 µM (inactive) | 
O=C(O)c1ccc(Nc2nc3ccc(C(F)(F)F)cc3nc2-c2ccccc2)cc1 |  | 27 µM (inactive) | 32.9 µM (inactive) |  | 43 µM (inactive) | 24 µM (inactive) | 15 µM (inactive) | 30 µM (inactive) | 46.1 µM (inactive) | 17.9 µM (inactive) | 40.3 µM (inactive) | 48 µM (inactive) | 27 µM (inactive) | 29.2 µM (inactive) |  | 77.6 µM (inactive) | 29.6 µM (inactive) | 43.4 µM (inactive) | 50.9 µM (inactive)
